Reference: patent US11932634B2 (Gilead Sciences, Inc., priority 2021, dated 2024)

What was measured:
human DGKα = target: T1, human DGKα (Homo sapiens, UniProt P23743); assay: DGKα Biochemical Activity Assay (ADP-Glo);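 further: recombinant enzyme converting diacylglycerol in lipid micelles with ATP, ADP formed detected by luminescence, IC50 from a four-parameter nonlinear fit, geometric mean across experiments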
T1 construct: purchased Carna Biosciences'; inferred from the same paragraph's 'obtained from Carna Biosciences')

[1] = system: Jurkat NFκB-luciferase cells; assay: Jurkat NFκB-Luciferase Assay; assay type: cell-based; details: Homo sapiens; Jurkat NFκB-luciferase cells activated with anti-CD3 antibody (OKT3), 2.5 hrs at 37° C., One-Glo Ex; geometric mean; read-out: DGK NFKb Luciferase EC50;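 further: bioluminescence read-out normalized to DMSO basal activation and to maximum enhancement at 1 µM compound, rising signal indicating stronger T-cell activation through DGKα inhibition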

T1 sequence (P23743 whole entry): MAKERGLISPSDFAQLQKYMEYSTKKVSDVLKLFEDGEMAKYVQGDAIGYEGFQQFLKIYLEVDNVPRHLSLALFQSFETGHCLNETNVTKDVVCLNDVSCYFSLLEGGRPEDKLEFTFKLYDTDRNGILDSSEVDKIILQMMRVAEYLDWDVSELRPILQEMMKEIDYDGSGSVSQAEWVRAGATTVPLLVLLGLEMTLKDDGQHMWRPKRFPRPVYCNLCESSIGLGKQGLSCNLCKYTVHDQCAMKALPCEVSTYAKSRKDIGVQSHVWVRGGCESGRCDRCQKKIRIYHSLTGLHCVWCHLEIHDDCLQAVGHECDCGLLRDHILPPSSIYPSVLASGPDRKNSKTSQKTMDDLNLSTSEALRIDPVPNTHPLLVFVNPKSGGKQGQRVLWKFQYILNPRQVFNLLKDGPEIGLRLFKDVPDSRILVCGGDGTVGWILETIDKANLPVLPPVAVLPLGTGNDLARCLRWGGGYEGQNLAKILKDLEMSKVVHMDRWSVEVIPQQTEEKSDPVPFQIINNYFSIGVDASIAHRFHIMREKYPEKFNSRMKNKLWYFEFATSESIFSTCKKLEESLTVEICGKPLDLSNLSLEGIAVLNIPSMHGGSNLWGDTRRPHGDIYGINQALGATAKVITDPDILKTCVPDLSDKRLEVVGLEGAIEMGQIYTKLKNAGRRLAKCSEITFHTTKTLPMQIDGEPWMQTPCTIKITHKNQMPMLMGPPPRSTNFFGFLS

SMILES	IC50 (human DGKα) [nM]	EC50 [1] [nM]
CCC(C)(O)C#Cc1cccc2c1CCCN2c1nc(=O)[nH]c2cccc(F)c12 (stereo not shown) [Example 56, 5-fluoro-4-[5-(3-hydroxy-3-methyl-pent-1-ynyl)-3,4-dihydro-2H-quinolin-1-yl]-1H-quinazolin-2-one]	31.9	5.16
CC(C)(C#N)C#Cc1cc(N(CC(F)F)c2nc(=O)[nH]c3ccc(F)c(F)c23)ccn1 [Example 77, 4-[4-[2,2-difluoroethyl-(5,6-difluoro-2-oxo-1H-quinazolin-4-yl)amino]-2-pyridyl]-2,2-dimethyl-but-3-ynenitrile]	14.1	24.2
O=c1nc(N2CCCCc3c(Br)cncc32)c2cc(F)ccc2[nH]1 [Example 163, 4-(6-bromo-2,3,4,5-tetrahydro-1H-pyrido[3,4-b]azepin-1-yl)-6-fluoroquinazolin-2(1H)-one]	48.7	8.9
O=c1nc(N(CC(F)F)c2cc(F)cc(C#CC3(C(F)(F)F)CC3)c2)c2cc(F)ccc2[nH]1 [Example 50, 4-[N-(2,2-difluoroethyl)-3-fluoro-5-[2-[1-(trifluoromethyl)cyclopropyl]ethynyl]anilino]-6-fluoro-1H-quinazolin-2-one]	213	1.81
CC1(C#Cc2cncc3c2CCCCN3c2nc(=O)[nH]c3ccc(F)c(F)c23)CC1 [Example 150, 5,6-difluoro-4-(6-((1-methylcyclopropyl)ethynyl)-2,3,4,5-tetrahydro-1H-pyrido[3,4-b]azepin-1-yl)quinazolin-2(1H)-one]	11.2	0.826
[2H]C([2H])([2H])n1c(=O)nc(N2CCCc3c(C#CC4CCCN4CC(F)F)cccc32)c2c(F)cccc21 (stereo not shown) [Example 162, 4-[5-[2-[1-(2,2-difluoroethyl)pyrrolidin-2-yl]ethynyl]-3,4-dihydro-2H-quinolin-1-yl]-5-fluoro-1-(trideuteriomethyl)quinazolin-2-one]	9.27	1.26
CC(C)(O)C#Cc1cccc2c1COCCN2c1nc(=O)[nH]c2c(F)ccc(F)c12 [Example 155]	16.2	53.8
O=c1nc(N2CCCCc3c(C#CC4(C(F)(F)F)CC4)cncc32)c2cc(F)ccc2[nH]1 [Example 165, 6-fluoro-4-(6-((1-(trifluoromethyl)cyclopropyl)ethynyl)-2,3,4,5-tetrahydro-1H-pyrido[3,4-b]azepin-1-yl)quinazolin-2(1H)-one]	12.2	0.635
CCn1c(=O)nc(N2CCCc3c(C#CC4(C(F)(F)F)CC4)cccc32)c2c(F)cccc21 [Example 20, 1-ethyl-5-fluoro-4-[5-[2-[1-(trifluoromethyl)cyclopropyl]ethynyl]-3,4-dihydro-2H-quinolin-1-yl]quinazolin-2-one]	293	0.875
[2H]C([2H])([2H])n1c(=O)nc(N(CC(F)F)c2cc(F)cc(-c3cnc(C4CC4)cn3)c2)c2c(F)c(F)ccc21 [Example 67, 4-[3-(5-cyclopropylpyrazin-2-yl)-N-(2,2-difluoroethyl)-5-fluoro-anilino]-5,6-difluoro-1-(trideuteriomethyl)quinazolin-2-one]	7.57	0.527
[2H]C([2H])([2H])n1c(=O)nc(N(CC(F)F)c2ccnc(C#CC3(C(F)(F)F)CC3)c2)c2c(F)c(F)ccc21 [Example 80, 4-[2,2-difluoroethyl-[2-[2-[1-(trifluoromethyl)cyclopropyl]ethynyl]-4-pyridyl]amino]-5,6-difluoro-1-(trideuteriomethyl)quinazolin-2-one]	3.75	1.94
CC(C)(O)C#Cc1cc(F)cc(N(CC(F)F)c2nc(=O)[nH]c3cccc(F)c23)c1 [Example 34, 4-[N-(2,2-difluoroethyl)-3-fluoro-5-(3-hydroxy-3-methyl-but-1-ynyl)anilino]-5-fluoro-1H-quinazolin-2-one]	32.8	13.4
[2H]C([2H])([2H])n1c(=O)nc(N(CC(F)F)c2ccnc(C#CC3(C(F)F)CC3)c2F)c2c(F)cccc21 [Example 129, 4-[2,2-difluoroethyl-[2-[2-[1-(difluoromethyl)cyclopropyl]ethynyl]-3-fluoro-4-pyridyl]amino]-5-fluoro-1-(trideuteriomethyl)quinazolin-2-one]	2.82	4.26
[2H]C([2H])([2H])n1c(=O)nc(N2CCOCc3c(C#CC4(C(F)(F)F)CC4)cccc32)c2c(F)cccc21 [Example 100, 5-fluoro-1-(methyl-d3)-4-(6-((1-(trifluoromethyl)cyclopropyl)ethynyl)-2,3-dihydrobenzo[e][1,4]oxazepin-1(5H)-yl)quinazolin-2(1H)-one]	16.6	0.979
CC(C)(O)C#Cc1cc(F)cc(N(CC(F)F)c2nc(=O)[nH]c3c(Cl)cc(F)cc23)c1 [Example 114, 8-chloro-4-[N-(2,2-difluoroethyl)-3-fluoro-5-(3-hydroxy-3-methyl-but-1-ynyl)anilino]-6-fluoro-1H-quinazolin-2-one]	445	112
O=c1nc(N2CCCc3c(Br)cncc32)c2c(F)cccc2[nH]1 [Example 70, 4-(5-bromo-3,4-dihydro-1,7-naphthyridin-1(2H)-yl)-5-fluoroquinazolin-2(1H)-one]	170	40.9
[2H]C([2H])([2H])n1c(=O)nc(N2CCCc3c(C#CC4CCN(C)C4)cccc32)c2c(F)cccc21 (stereo not shown) [Example 166, 5-fluoro-4-[5-[2-(1-methylpyrrolidin-3-yl)ethynyl]-3,4-dihydro-2H-quinolin-1-yl]-1-(trideuteriomethyl)quinazolin-2-one]	71.5	6.71
CC(F)(F)C1(C#Cc2cccc3c2COCCN3c2nc(=O)[nH]c3cccc(F)c23)CC1 [Example 112, 4-(6-((1-(1,1-difluoroethyl)cyclopropyl)ethynyl)-2,3-dihydrobenzo[e][1,4]oxazepin-1(5H)-yl)-5-fluoroquinazolin-2(1H)-one]	23.6	0.973
CC(C)(C#N)C#Cc1nccc(N(CC(F)F)c2nc(=O)[nH]c3cccc(F)c23)c1F [Example 119, 4-[4-[2,2-difluoroethyl-(5-fluoro-2-oxo-1H-quinazolin-4-yl)amino]-3-fluoro-2-pyridyl]-2,2-dimethyl-but-3-ynenitrile]	10.8	7.11
CC(C)(C#Cc1cccc(N(CC(F)F)c2nc(=O)[nH]c3cccc(F)c23)c1F)C(F)(F)F [Example 60, 4-[N-(2,2-difluoroethyl)-2-fluoro-3-(4,4,4-trifluoro-3,3-dimethyl-but-1-ynyl)anilino]-5-fluoro-1H-quinazolin-2-one]	122	2.53
[2H]C([2H])([2H])n1c(=O)nc(N2CCCOc3c(C#CC(C)(C)O)cccc32)c2c(F)cccc21 [Example 83, 5-fluoro-4-[9-(3-hydroxy-3-methyl-but-1-ynyl)-3,4-dihydro-2H-1,5-benzoxazepin-5-yl]-1-(trideuteriomethyl)quinazolin-2-one]	13.1	16.2
[2H]C([2H])([2H])n1c(=O)nc(N2CCOCc3c(C#CC(C)(C)NC(=O)C4(C(C)(F)F)CC4)cccc32)c2c(F)cccc21 [Example 180, 1-(1,1-difluoroethyl)-N-(4-(1-(5-fluoro-1-(methyl-d3)-2-oxo-1,2-dihydroquinazolin-4-yl)-1,2,3,5-tetrahydrobenzo[e][1,4]oxazepin-6-yl)-2-methylbut-3-yn-2-yl)cyclopropane-1-carboxamide]	4.63	7.56
[2H]C([2H])([2H])n1c(=O)nc(N2CCOCc3c(C#CC(C)(C)N)cccc32)c2c(F)cccc21 [Example 175, 4-(6-(3-amino-3-methylbut-1-yn-1-yl)-2,3-dihydrobenzo[e][1,4]oxazepin-1(5H)-yl)-5-fluoro-1-(methyl-d3)quinazolin-2(1H)-one]	122	21.3
[2H]C([2H])([2H])n1c(=O)nc(N2CCCc3c(C#CC4(C(F)(F)F)CC4)cccc32)c2c(F)c(F)ccc21 [Example 42, 5,6-difluoro-1-(trideuteriomethyl)-4-[5-[2-[1-(trifluoromethyl)cyclopropyl]ethynyl]-3,4-dihydro-2H-quinolin-1-yl]quinazolin-2-one]	9.48	0.311
[2H]C([2H])([2H])n1c(=O)nc(N(CC(F)F)c2cc(F)cc(C#CC3(C)CCCO3)c2)c2c(F)c(F)ccc21 (stereo not shown) [Example 66, 4-[N-(2,2-difluoroethyl)-3-fluoro-5-[2-(2-methyltetrahydrofuran-2-yl)ethynyl]anilino]-5,6-difluoro-1-(trideuteriomethyl)quinazolin-2-one]	3.27	2.85
CC(C)(O)C#Cc1cccc2c1OCCCN2c1nc(=O)[nH]c2cccc(F)c12 [Example 82, 5-fluoro-4-[9-(3-hydroxy-3-methyl-but-1-ynyl)-3,4-dihydro-2H-1,5-benzoxazepin-5-yl]-1H-quinazolin-2-one]	4.42	18
[2H]C([2H])([2H])n1c(=O)nc(N(CC(F)F)c2cccc(C#CC(C)(C)O)c2F)c2c(F)cccc21 [Example 111, 4-[N-(2,2-difluoroethyl)-2-fluoro-3-(3-hydroxy-3-methyl-but-1-ynyl)anilino]-5-fluoro-1-(trideuteriomethyl)quinazolin-2-one]	3.11	9.32
[2H]C([2H])([2H])n1c(=O)nc(N2CCCc3c2ccnc3C#CC2(C(F)(F)F)CC2)c2c(F)c(F)ccc21 [Example 141, 5,6-difluoro-1-(trideuteriomethyl)-4-[5-[2-[1-(trifluoromethyl)cyclopropyl]ethynyl]-3,4-dihydro-2H-1,6-naphthyridin-1-yl]quinazolin-2-one]	6.28	2.37
CC1(C#Cc2cncc3c2CCCCN3c2nc(=O)[nH]c3ccc(F)cc23)CC1 [Example 164, 6-fluoro-4-(6-((1-methylcyclopropyl)ethynyl)-2,3,4,5-tetrahydro-1H-pyrido[3,4-b]azepin-1-yl)quinazolin-2(1H)-one]	5.58	0.693
